Laboratory results as given in publication PMC10969960, “Novel Anthraquinone-Based Benzenesulfonamide Derivatives and Their Analogues as Potent Human Carbonic Anhydrase Inhibitors with Antitumor Activity: Synthesis, Biological Evaluation, and In Silico Analysis” (International Journal of Molecular Sciences, 2024).
Where two headings read alike, the source gives them in different places.

Columns and labels:
hCA IX = target: T1, hCA IX (Homo sapiens, UniProt Q16790); assay: CA inhibition assay, 4-nitrophenyl acetate (4-NPA) esterase assay; format: biochemical; settings: errors ±5–10% of the reported values
T1 construct: purchased Shanghai Jining Biological

hCA II = target: T2, hCA II (Homo sapiens, UniProt P00918); assay: as above; format: biochemical; settings: errors ±5–10% of the reported values
T2 construct: purchased Shanghai Jining Biological

MCF-7 cancer cells = assay: MTT anti-proliferative assay; format: cell-based; settings: Homo sapiens, MCF7, 24 h
Method: (§5) The median growth-inhibitory concentration (IC50) in the treated cells was compared to that of untreated controls. Cells were cultured under normoxic and hypoxic conditions to evaluate the effects of the compounds on cancer cell viability.
(§6) The cell cultures were passaged once every 2–3 days.
(§7) The 3-(4,5-dimethylthiazol-2-yl)-2,5-diphenyltetrazolium bromide (MTT) assay was used to measure the cell viability. Cells were planted into 96-well plates (4 × 10^3 cells per well) and cultured in media containing different concentrations of compounds. […] The supernatant was then discarded, and 150 μL of DMSO was added to each well, followed by gentle shaking. The absorbance value at 570 nm was measured using an EL808 microplate reader (Bio-TEK Instrument, Winooski, VT, USA).

HepG2 cancer cells = assay: MTT anti-proliferative assay; format: cell-based; settings: Homo sapiens, 24 h
Method: as §5, §6, §7

MDA-MB-231 cancer cells = assay: MTT anti-proliferative assay; format: cell-based; settings: Homo sapiens, 24 h
Method: as §5, §6, §7

HepG2 cells = assay: Annexin V-FITC/propidium iodide analysis of apoptosis; format: cell-based; settings: HepG2, 24 h incubation
Method: (§1) Annexin V-FITC/propidium iodide analysis of apoptosis assays were conducted to evaluate the effect of 5c on apoptosis in the MDA-MB-231, MCF-7, and HepG2 cancer cell lines. As shown in Table 3 and Figure 4, a significant increase in the percentage of apoptotic cells (containing early and late apoptosis percentages) and a notable decrease in cell viability were observed after incubation with compound 5c for 24 h.
(§2) Cells were cultured in 6-well plates and treated with the compounds for 24 h. Approximately 1 × 10^5 cells were collected and suspended in binding buffer. Apoptosis was analyzed using an AV/PI apoptosis detection kit (Beyotime Institute of Biotechnology, Shanghai, China) with a flow cytometer (BD Bioscience, Franklin Lakes, NJ, USA).

MCF-7 cells = assay: as above; format: cell-based; settings: MCF-7, 24 h incubation
Method: as §1, §2

MDA-MB-231 cells = assay: as above; format: cell-based; settings: MDA-MB-231, 24 h incubation
Method: as §1, §2

MCF-7 cell line = assay: Mitochondrial membrane potential assay (JC-1 staining); format: cell-based; settings: MCF-7, 20 μM, 48 h
Method: (§3) The present study investigated the involvement of mitochondria in compound-5-induced apoptosis by JC-1 staining. Red fluorescence indicates JC-1 aggregates, and green fluorescence indicates membrane potential leading to an increase in JC-1 monomers.
(§4) A mitochondrial membrane potential assay kit (Beyotime Co., Nantong, China) was used to measure the mitochondrial membrane potential with a JC-1 fluorescent probe. […] The cells were then fixed with 4% paraformaldehyde and stained with 5 mg/L JC-1 at 37 °C for 1 h. Fluorescent images were acquired using a fluorescence microscope (Olympus IX81, Olympus, Tokyo, Japan).

MDA-MB-231 cell line = assay: as above; format: cell-based; settings: MDA-MB-231, 20 μM, 48 h
Method: as §3, §4

HepG2 cell line = assay: as above; format: cell-based; settings: HepG2, 20 μM, 48 h
Method: as §3, §4

[1] = hypoxic (0.5% O2), read-out: IC50 MCF-7 Hypo
[2] = normoxic, read-out: IC50 MCF-7 Normo
[3] = hypoxic (0.5% O2), read-out: IC50 HepG2 Hypo
[4] = normoxic, read-out: IC50 HepG2 Normo
[5] = hypoxic (0.5% O2), read-out: IC50 MDA-MB-231 Hypo
[6] = normoxic, read-out: IC50 MDA-MB-231 Normo

| Structure (SMILES) | melting point | IC50 (hCA IX) | IC50 (hCA II) | further results |
| --- | --- | --- | --- | --- |
| O=C(O)c1ccc(NC(=S)NC(=O)c2ccc3c(c2)C(=O)c2ccccc2C3=O)cc1 [Compound 5a, (3-(9,10-Dioxo-9,10-Dihydroanthracene-2-Carbonyl) Thioureido) Benzoic Acid] | 221 to 221.4 °C | 217 nM | 113 nM |  |
| CC(=O)c1ccc(NC(=S)NC(=O)c2ccc3c(c2)C(=O)c2ccccc2C3=O)cc1 [Compound 5e, ((4-Acetylphenyl)Carbamothioyl)-9,10-Dioxo-9,10-Dihydroanthracene-2-Carboxamide] | 215 to 215.9 °C | 275 nM | 132 nM |  |
| COC(=O)c1ccc(NC(=S)NC(=O)c2ccc3c(c2)C(=O)c2ccccc2C3=O)cc1 [Compound 5f, Methyl 4-(3-(9,10-Dioxo-9,10-Dihydroanthracene-2-Carbonyl)Thioureido)Benzoate] | 211 to 211.4 °C | 190 nM | 147 nM |  |
| NS(=O)(=O)c1cccc(NC(=S)NC(=O)c2ccc3c(c2)C(=O)c2ccccc2C3=O)c1 [Compound 5d, 9,10-Dioxo-N-((3-Sulfamoylphenyl)Carbamothioyl)-9,10-Dihydroanthracene-2-Carboxamide] | 146.5 to 146.8 °C | 73.6 nM | 64.3 nM |  |
| COC(=O)c1cccc(NC(=S)NC(=O)c2ccc3c(c2)C(=O)c2ccccc2C3=O)c1 [Compound 5g, Methyl 3-(3-(9,10-Dioxo-9,10-Dihydroanthracene-2-Carbonyl)Thioureido)Benzoate] | 187 to 187.3 °C | 251 nM | 238 nM |  |
| O=C(NC(=S)Nc1ccc(S(=O)(=O)Nc2nccs2)cc1)c1ccc2c(c1)C(=O)c1ccccc1C2=O [Compound 5m, 9,10-Dioxo-N-((4-(N-(Thiazol-2-yl)Sulfamoyl)Phenyl)Carbamothioyl)-9,10-Dihydroanthracene-2-Carboxamide] |  | 71 nM | 95.9 nM |  |
| NS(=O)(=O)c1ccc(NC(=S)NC(=O)c2ccc3c(c2)C(=O)c2ccccc2C3=O)cc1 [Compound 5c, 9,10-Dioxo-N-((4-Sulfamoylphenyl)Carbamothioyl)-9,10-Dihydroanthracene-2-Carboxamide] |  | 40.6 nM | 41.6 nM | Cell Viability (Lower Left %) (HepG2 cells): 70.12 ± 2.84%; Total Apoptosis (L.R% + U.R%) (HepG2 cells): 25.06 ± 2.01%; Cell Viability (Lower Left %) (MCF-7 cells): 51.77 ± 2.80%; Total Apoptosis (L.R% + U.R%) (MCF-7 cells): 43.37 ± 3.92%; Cell Viability (Lower Left %) (MDA-MB-231 cells): 68.88 ± 2.30%; Total Apoptosis (L.R% + U.R%) (MDA-MB-231 cells): 27.26 ± 1.76%; IC50 (MCF-7 cancer cells; [1]): 28100 ± 1720 nM; IC50 (MCF-7 cancer cells; [2]): 34300 ± 2850 nM; mitochondrial membrane potential (MCF-7 cell line): reduction in mitochondrial membrane potential; mitochondrial membrane potential (MDA-MB-231 cell line): reduction in mitochondrial membrane potential; mitochondrial membrane potential (HepG2 cell line): reduction in mitochondrial membrane potential; IC50 (HepG2 cancer cells; [3]): 69400 ± 5160 nM; IC50 (HepG2 cancer cells; [4]): 61400 ± 5750 nM; IC50 (MDA-MB-231 cancer cells; [5]): 46200 ± 3930 nM; IC50 (MDA-MB-231 cancer cells; [6]): 48100 ± 3230 nM |
| O=C(NC(=S)Nc1ccc(S(=O)(=O)Nc2ncccn2)cc1)c1ccc2c(c1)C(=O)c1ccccc1C2=O [Compound 5j] | 237 to 237.2 °C | 77.7 nM | 87.7 nM |  |
| NS(=O)(=O)c1ccc(CCNC(=S)NC(=O)c2ccc3c(c2)C(=O)c2ccccc2C3=O)cc1 [Compound 5h, 9,10-Mioxo-N-((4-Sulfamoylphenethyl)Carbamothioyl)-9,10-Dihydroanthracene-2-Carboxamide] | 323 to 323.5 °C | 46.2 nM | 21.2 nM | IC50 (MCF-7 cancer cells; [1]): 57400 ± 5500 nM; IC50 (MCF-7 cancer cells; [2]): 63800 ± 5570 nM; IC50 (HepG2 cancer cells; [3]): 80400 ± 7140 nM; IC50 (HepG2 cancer cells; [4]): 81400 ± 7030 nM; IC50 (MDA-MB-231 cancer cells; [5]): 81200 ± 7340 nM; IC50 (MDA-MB-231 cancer cells; [6]): 75200 ± 6810 nM |
| N=C(N)NS(=O)(=O)c1ccc(NC(=S)NC(=O)c2ccc3c(c2)C(=O)c2ccccc2C3=O)cc1 [Compound 5n, ((4-(N-Carbamimidoylsulfamoyl)Phenyl)Carbamothioyl)-9,10-Dioxo-9,10-Dihydroanthracene-2-Carboxamide] | 206 to 206.5 °C | 103 nM | 98.4 nM |  |
| CNS(=O)(=O)c1ccc(NC(=S)NC(=O)c2ccc3c(c2)C(=O)c2ccccc2C3=O)cc1 [Compound 5i, ((4-(N-Methylsulfamoyl)Phenyl)Carbamothioyl)-9,10-Anthraquinone-2-Carboxamide] | 207 to 207.6 °C | 100 nM | 76.7 nM |  |
| CC(=O)NS(=O)(=O)c1ccc(NC(=S)NC(=O)c2ccc3c(c2)C(=O)c2ccccc2C3=O)cc1 [Compound 5k, ((4-(N-Acetylsulfamoyl)Phenyl)Carbamothioyl)-9,10-Dioxo-9,10-Dihydroanthracene-2-Carboxamide] | 192 to 192.4 °C | 227 nM | 156 nM |  |
| O=C(O)c1cccc(NC(=S)NC(=O)c2ccc3c(c2)C(=O)c2ccccc2C3=O)c1 [Compound 5b, 3-(3-(9,10-Dioxo-9,10-Dihydroanthracene-2-Carbonyl) Thioureido) Benzoic Acid] |  | 254 nM | 135 nM |  |

Second part, led by results:

| melting point | IC50 (hCA IX) | IC50 (hCA II) | Structure (SMILES) | further results |
| --- | --- | --- | --- | --- |
|  | 30.1 nM | 61.8 nM | NS(=O)(=O)c1ccc(CCNC(=O)c2ccc3c(c2)C(=O)c2ccccc2C3=O)cc1 [Compound 6h, 9,10-Dioxo-N-(4-Sulfamoylphenethyl)-9,10-Dihydroanthracene-2-Carboxamide] | IC50 (MCF-7 cancer cells; [1]): 30300 ± 3140 nM; IC50 (MCF-7 cancer cells; [2]): 41400 ± 2220 nM; IC50 (HepG2 cancer cells; [3]): 54300 ± 5150 nM; IC50 (HepG2 cancer cells; [4]): 58200 ± 5450 nM; IC50 (MDA-MB-231 cancer cells; [5]): 50400 ± 4270 nM; IC50 (MDA-MB-231 cancer cells; [6]): 54200 ± 4870 nM |
| 283 to 283.2 °C | 55.9 nM | 91.2 nM | NS(=O)(=O)c1cccc(NC(=O)c2ccc3c(c2)C(=O)c2ccccc2C3=O)c1 [Compound 6d, 9,10-Dioxo-N-(3-Sulfamoylphenyl)-9,10-Dihydroanthracene-2-Carboxamide] |  |
| 273 to 273.8 °C | 110 nM | 172 nM | CNS(=O)(=O)c1ccc(NC(=O)c2ccc3c(c2)C(=O)c2ccccc2C3=O)cc1 [Compound 6i, N-(4-(N-Methylsulfamoyl)Phenyl)-9,10-Dioxo-9,10-Dihydroanthracene-2-Carboxamide] |  |
| 341 to 341.3 °C | 34.9 nM | 68.3 nM | NS(=O)(=O)c1ccc(NC(=O)c2ccc3c(c2)C(=O)c2ccccc2C3=O)cc1 [Compound 6c, 9,10-Dioxo-N-(4-Sulfamoylphenyl)-9,10-Dihydroanthracene-2-Carboxamide] | IC50 (MCF-7 cancer cells; [1]): 47000 ± 4010 nM; IC50 (MCF-7 cancer cells; [2]): 50400 ± 4730 nM; IC50 (HepG2 cancer cells; [3]): 62800 ± 5520 nM; IC50 (HepG2 cancer cells; [4]): 68800 ± 4170 nM; IC50 (MDA-MB-231 cancer cells; [5]): 61600 ± 5130 nM; IC50 (MDA-MB-231 cancer cells; [6]): 56300 ± 4190 nM |
| 304 to 304.3 °C | 140 nM | 170 nM | CC(=O)NS(=O)(=O)c1ccc(NC(=O)c2ccc3c(c2)C(=O)c2ccccc2C3=O)cc1 [Compound 6k, N-(4-(N-Acetylsulfamoyl)Phenyl)-9,10-Dioxo-9,10-Dihydroanthracene-2-Carboxamide] |  |
| 274 to 274.6 °C | 166 nM | 274 nM | O=C(O)c1cccc(NC(=O)c2ccc3c(c2)C(=O)c2ccccc2C3=O)c1 [Compound 6b, (9,10-Dioxo-9,10-Dihydroanthracene-2-Carboxamido)Benzoic Acid] |  |
| 338 to 338.5 °C | 194 nM | 296 nM | O=C(O)c1ccc(NC(=O)c2ccc3c(c2)C(=O)c2ccccc2C3=O)cc1 [Compound 6a, 4-(9,10-Dioxo-9,10-Dihydroanthracene-2-Carboxamido)Benzoic Acid] |  |
| 266 to 266.5 °C | 168 nM |  | CC(=O)c1ccc(NC(=O)c2ccc3c(c2)C(=O)c2ccccc2C3=O)cc1 [Compound 6e, N-(4-Acetylphenyl)-9,10-Dioxo-9,10-Dihydroanthracene-2-Carboxamide] |  |
